pIC50: −log10 of the molar value.
Target: T1, 11β-HSD1 (Homo sapiens, UniProt P28845)
T1 construct: detecting cortisol generated from cortisterone by human liver microsomes; from tissue; host or cells: human liver microsomes
Experiment: In vitro inhibition of 11β-HSD1, HTRF detection of cortisol generated from cortisone by human liver microsomes
Assay type: biochemical
Details: 11β-HSD IC50 (nM), 1 hour at 37° C., pH 6.0, NADPH 200 μM, cortisone 80 nM, inhibition relative to carbenoxolone signal
Experimental: Cortisol generated in the reaction is then detected with a competitive immunoassay, involving two HTRF conjugates: cortisol linked to XL665 and anti-cortisol antibody labeled with Europium cryptate. The incubation period for detection reaction was typically 2 hours. […] The ratio of the two emission signals is then calculated (Em665*10000/Em615). […] Each assay also contained a calibration curve with cortisol to transform the fluorescent data into cortisol concentrations. Percent inhibition of each compound was determined relative to the carbenoxolone signal and IC50 curves were generated.

T1 sequence (P28845 whole entry): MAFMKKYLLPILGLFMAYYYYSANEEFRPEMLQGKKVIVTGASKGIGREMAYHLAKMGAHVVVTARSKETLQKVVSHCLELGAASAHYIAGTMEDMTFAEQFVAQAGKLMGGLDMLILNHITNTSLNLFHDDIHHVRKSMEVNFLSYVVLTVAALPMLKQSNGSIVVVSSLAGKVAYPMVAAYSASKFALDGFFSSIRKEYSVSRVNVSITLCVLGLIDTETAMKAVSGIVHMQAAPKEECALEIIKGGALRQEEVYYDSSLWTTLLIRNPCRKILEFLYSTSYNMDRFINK

Structure (SMILES)	IC50 [nM]
CC1(C)[C@H]2Cc3ccccc3[C@]1(C)CCN2C(=O)c1ccc(N)c(Cl)c1 [Example 295, (4-Amino-3-chloro-phenyl)-[(2R,6S)-6,11,11-trimethyl-1,2,5,6-tetrahydro-4H-2,6-methano-benzo[d]azocin-3-yl]-methanone]	35
CC1(C)[C@H]2Cc3ccccc3[C@]1(C)CCN2C(=O)c1cc(F)c(F)c(F)c1 [Example 297, (3,4,5-Trifluoro-phenyl)-[(2R,6S)-6,11,11-trimethyl-1,2,5,6-tetrahydro-4H-2,6-methano-benzo[d]azocin-3-yl]-methanone]	895
Cc1nc2cc3c(cc2n1C)C[C@H]1N(C(=O)c2ccc4nc[nH]c4c2)CC[C@]3(C)C1(C)C [Example 243, (3H-Benzoimidazol-5-yl)-[(6R,10S)-5,6,7,8,9,10-hexahydro-2,3,10,12,12-pentamethyl-6,10-methano-imidazo[4,5-i][3]benzazocin-7-yl]-methanone]	113
C[C@@H]1[C@H]2Cc3ccc(-c4ccc(=O)n(C)c4)cc3[C@]1(C)CCN2C(=O)c1ccc2nc[nH]c2c1 [Example 289, 5-[(2R,6R,11S)-3-(3H-Benzoimidazole-5-carbonyl)-6,11-dimethyl-1,2,3,4,5,6-hexahydro-2,6-methano-benzo[d]azocin-8-yl]-1-methyl-1H-pyridin-2-one]	121
CC1(C)[C@H]2Cc3c(O)cccc3[C@]1(C)CCN2C(=O)c1cc2ccccc2[nH]1 [Example 116, [(2R,6S)-10-Hydroxy-6,11,11-trimethyl-1,2,5,6-tetrahydro-4H-2,6-methano-benzo[d]azocin-3-yl]-(1H-indol-2-yl)-methanone]	3850
Cc1cc(C(=O)N2CC[C@@]3(C)c4cccc(O)c4C[C@@H]2C3(C)C)nn1C [Example 124, (1,5-Dimethyl-1H-pyrazol-3-yl)-[(2R,6S)-10-hydroxy-6,11,11-trimethyl-1,2,5,6-tetrahydro-4H-2,6-methano-benzo[d]azocin-3-yl]-methanone]	658
C[C@@H]1[C@H]2Cc3ccc(-c4ncon4)cc3[C@]1(C)CCN2C(=O)c1ccc2nc[nH]c2c1 [Example 232, (3H-Benzoimidazol-5-yl)-[(2R,6R,11S)-6,11-dimethyl-8-[1,2,4]oxadiazol-3-yl-1,2,5,6-tetrahydro-4H-2,6-methano-benzo[d]azocin-3-yl]-methanone]	132
C[C@@H]1[C@H]2Cc3ccc(-c4ccccc4)cc3[C@]1(C)CCN2C(=O)c1ccc2nc[nH]c2c1 [Example 249, (3H-Benzoimidazol-5-yl)-[(2R,6R,11S)-6,11-dimethyl-8-phenyl-1,2,5,6-tetrahydro-4H-2,6-methano-benzo[d]azocin-3-yl)-methanone]	265
CC1(C)[C@H]2Cc3c(O)cccc3[C@]1(C)CCN2C(=O)c1ccc(C(=O)Nc2ccccc2)cc1 [Example 135, 4-[(2R,6S)-10-Hydroxy-6,11,11-trimethyl-1,2,5,6-tetrahydro-4H-2,6-methano-benzo[d]azocine-3-carbonyl]-N-phenyl-benzamide]	3520
CC12CCN(C(=O)c3ccc4nc[nH]c4c3)C(Cc3cc(F)ccc31)C2(C)C (stereo not drawn) [Example 145, (3H-Benzoimidazol-5-yl)-(9-fluoro-6,11,11-trimethyl-1,2,5,6-tetrahydro-4H-2,6-methano-benzo[d]azocin-3-yl)-methanone]	108
Cc1ccoc1C(=O)N1CC[C@@]2(C)c3cc(O)ccc3C[C@@H]1[C@@H]2C [Example 112, [(2R,6R,11R)-8-Hydroxy-6,11-dimethyl-1,2,5,6-tetrahydro-4H-2,6-methano-benzo[d]azocin-3-yl]-(3-methyl-furan-2-yl)-methanone]	1230
CC1(C)[C@H]2Cc3ccccc3[C@]1(C)CCN2C(=O)c1ccc2c(c1)C(=O)CC2 [Example 288, 6-[(2R,6S)-6,11,11-Trimethyl-1,2,5,6-tetrahydro-4H-2,6-methano-benzo[d]azocine-3-carbonyl)-indan-1-one]	901
CC12CCN(C(=O)c3ccc4nc[nH]c4c3)C(Cc3ccc(O)cc31)C2(C)C (stereo not drawn) [Example 58, (3H-Benzoimidazol-5-yl)-(8-hydroxy-6,11,11-trimethyl-1,2,5,6-tetrahydro-4H-2,6-methano-benzo[d]azocin-3-yl)-methanone]	62
CC1(C)[C@H]2Cc3c(O)cccc3[C@]1(C)CCN2C(=O)c1ccc(C(=O)N2CCOCC2)cc1 [Example 134, [(2R,6S)-10-Hydroxy-6,11,11-trimethyl-1,2,5,6-tetrahydro-4H-2,6-methano-benzo[d]azocin-3-yl]-[4-(morpholine-4-carbonyl)-phenyl]-methanone]	1230
CC1(C)[C@H]2Cc3c(O)cccc3[C@]1(C)CCN2C(=O)c1cccnc1 [Example 127, [(2R,6S)-10-Hydroxy-6,11,11-trimethyl-1,2,5,6-tetrahydro-4H-2,6-methano-benzo[d]azocin-3-yl]-pyridin-3-yl-methanone]	1470
Cn1c(=O)[nH]c2cc(C(=O)N3CC[C@@]4(C)c5cccc(O)c5C[C@@H]3C4(C)C)ccc21 [Example 29, 5-[(2R,6S)-10-Hydroxy-6,11,11-trimethyl-1,2,5,6-tetrahydro-4H-2,6-methano-benzo[d]azocine-3-carbonyl]-1-methyl-1,3-dihydro-benzoimidazol-2-one]	1730
Cc1ccc(C(=O)N2CC[C@@]3(C)c4cccc(O)c4C[C@@H]2C3(C)C)cc1 [Example 12, [(2R,6S)-10-Hydroxy-6,11,11-trimethyl-1,2,5,6-tetrahydro-4H-2,6-methano-benzo[d]azocin-3-yl]-p-tolyl-methanone]	792
CC1(C)[C@H]2Cc3ccccc3[C@]1(C)CCN2C(=O)c1ccc(O)cc1 [Example 318, (4-Hydroxy-phenyl)-[(2R,6S)-6,11,11-trimethyl-1,2,5,6-tetrahydro-4H-2,6-methano-benzo[d]azocin-3-yl]-methanone]	31
CC1(C)[C@H]2Cc3c(O)cccc3[C@]1(C)CCN2C(=O)c1ccncn1 [Example 129, [(2R,6S)-10-Hydroxy-6,11,11-trimethyl-1,2,5,6-tetrahydro-4H-2,6-methano-benzo[d]azocin-3-yl]-pyrimidin-4-yl-methanone]	5850
O=C(c1ccc2nc[nH]c2c1)N1CCC2(c3ccccc3)CC1Cc1ccccc12 (stereo not drawn) [Example 148, (3H-Benzoimidazol-5-yl)-(6-phenyl-1,2,5,6-tetrahydro-4H-2,6-methano-benzo[d]azocin-3-yl)-methanone]	556
CC1(C)[C@H]2Cc3c(O)cccc3[C@]1(C)CCN2C(=O)c1c[nH]c2ccc(F)cc12 [Example 193, (5-Fluoro-1H-indol-3-yl)-[(2R,6S)-10-hydroxy-6,11,11-trimethyl-1,2,5,6-tetrahydro-4H-2,6-methano-benzo[d]azocin-3-yl]-methanone]	360
CC(=O)Nc1ccc(C(=O)N2CC[C@@]3(C)c4cccc(O)c4C[C@@H]2C3(C)C)cc1F [Example 27, N-{2-Fluoro-4-[(2R,6S)-10-hydroxy-6,11,11-trimethyl-1,2,5,6-tetrahydro-4H-2,6-methano-benzo[d]azocine-3-carbonyl]-phenyl}-acetamide]	629
CC[C@H]1[C@H]2Cc3ccc(O)cc3[C@]1(CC)CCN2C(=O)c1ccc2nc[nH]c2c1 (racemic) [Example 86, (3H-Benzoimidazol-5-yl)-(6,11-diethyl-8-hydroxy-1,2,5,6-tetrahydro-4H-2,6-methano-benzo[d]azocin-3-yl)-methanone]	2400
CC1(C)[C@H]2Cc3c(C#N)cccc3[C@]1(C)CCN2C(=O)c1ccc2nc[nH]c2c1 [Example 93, (2R,6S)-3-(3H-Benzoimidazole-5-carbonyl)-6,11,11-trimethyl-1,2,3,4,5,6-hexahydro-2,6-methano-benzo[d]azocine-10-carbonitrile]	2060
CC1(C)[C@H]2Cc3c(O)cccc3[C@]1(C)CCN2C(=O)c1ccccc1Cl [Example 2, (2-Chloro-phenyl)-[(2R,6S)-10-hydroxy-6,11,11-trimethyl-1,2,5,6-tetrahydro-4H-2,6-methano-benzo[d]azocin-3-yl]-methanone]	741
C[C@@H]1[C@H]2Cc3cc(C#N)c(O)cc3[C@]1(C)CCN2C(=O)c1ccc2nc[nH]c2c1 [Example 223, (2R,6R,11S)-3-(3H-Benzoimidazole-5-carbonyl)-8-hydroxy-6,11-dimethyl-1,2,3,4,5,6-hexahydro-2,6-methano-benzo[d]azocine-9-carbonitrile]	106
CC1(C)[C@H]2Cc3c(O)cccc3[C@]1(C)CCN2C(=O)c1ccc2c(c1)NC(=O)C2 [Example 33, 6-[(2R,6S)-10-Hydroxy-6,11,11-trimethyl 1,2,5,6-tetrahydro-4H-2,6-methano-benzo[d]azocine-3-carbonyl]-1,3-dihydro-indol-2-one]	3490
CNC(=O)c1cccc(C(=O)N2CC[C@@]3(C)c4cccc(O)c4C[C@@H]2C3(C)C)c1 [Example 39, 3-[(2R,6S)-10-Hydroxy-6,11,11-trimethyl-1,2,5,6-tetrahydro-4H-2,6-methano-benzo[d]azocine-3-carbonyl]-N-methyl-benzamide]	1590
C[C@@H]1[C@H]2Cc3ccc(C(=O)N(C)C)cc3[C@]1(C)CCN2C(=O)c1ccc2nc[nH]c2c1 [Example 155, (2R,6R,11S)-3-(3H-Benzoimidazole-5-carbonyl)-6,11-dimethyl-1,2,3,4,5,6-hexahydro-2,6-methano-benzo[d]azocine-8-carboxylic acid dimethylamide]	354

Same assay, conditions: 1 hour at 37° C., pH 6.0, NADPH 200 μM, cortisone 80 nM, inhibition relative to carbenoxolone signal, read-out: 11β-HSD IC50

Structure (SMILES)	pIC50
COc1ccc2c(c1)C1CCN(C(=O)c3ccc4nc[nH]c4c3)C1C2 (stereo not drawn) [Example 321, (3H-Benzoimidazol-5-yl)-(5-methoxy-3,3a,8,8a-tetrahydro-2H-1-aza-cyclopenta[a]inden-1-yl)-methanone]	5.93

— patent publication US8859580B2 (Boehringer Ingelheim International GmbH, priority 2007, dated 2014)
